Source: patent US20220380371A1, “MLL1 INHIBITORS AND ANTI-CANCER AGENTS” (NOVARTIS AG, priority 2019, published 2022)
pIC50: −log10 of the molar value.

Legend:
[1] = target: wild type MLL1 five-member complex (MLL1-5C) (Homo sapiens, UniProt Q03164); assay: MLL1 Flashplate Assay; type: biochemical; details: read-out: MLL1 flash plate
Method: MLL1 Flashplate Assay To assess the compound potency in MLL1 Flashplate assay, compounds were serially diluted 3-fold in DMSO to obtain a total of twelve concentrations. Then the test compounds at each concentration (250 nL of each) were transferred by Mosquito into Corning #3675 384-well plate. Solutions (15 μL) of 4.2 nM wild type MLL1 five-member complex (MLL1-5C) in the assay buffer (20 mM Tris-HCl, pH 8.0, 0.01% Tween 20, 1 mM DTT, 0.01% BSA) were added to the wells. A 10 μL solution of 2.5 μM of the peptide substrate H3K4me0 (histone H3[1-21]-Biotin) and 1.25 μM ^3H-SAM in the reaction buffer was then added to initiate each reaction. The final components in the reaction solution include 2.5 nM MLL1-5C, 0.5 μM ^3H-SAM, and 1 μM H3K4me0 with varying concentration of the compounds. A positive control consisted of 2.5 nM MLL1-5C, 0.5 μM ^3H-SAM, and 1 μM substrate in the absence of the test compound, and a negative control consisted of 0.5 μM ^3H-SAM, and 1 μM substrate only. Each reaction was incubated at rt for 90 min, then stopped by addition of 5 μL per of quench solution (0.5 mM SAM in assay buffer). 25 μL of each reaction solution was transferred to FlashPlate streptavidin 384-well microplate (PerkinElmer). After at least 1 h incubation at rt, the wells were washed three times with 0.1% Tween-20 in dH2O using the BioTek plate washer. The plates were then read in MicroBeta (PerkinElmer). The radioactive readouts were then normalized based on the values coming from the positive and negative controls to give percent enzyme activities. The data were then fit to a dose response equation using the program Helios to get the IC50 values of the test compounds.

MV4-11 cells = assay: MV4-11 6-Day Cell Growth CTG (CellTiter-Glo) Assay; type: cell-based; details: Homo sapiens, MV4-11, 144 h, MV4-11 cell growth CellTiter-Glo, 6 days
Outline: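 MV4-11 AML cells (RPMI 1640, 10% FBS) seeded at 300 cells/well and exposed for 6 days at 37 °C to a 12-point, 1:3 compound series starting at 50 μM final. Viable cells read by CellTiter-Glo luminescence; percent inhibition versus DMSO-only wells fitted to dose-response curves for IC50.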

[2] = target: wild type MLL1 four-member complex (MLL1-4C) (Homo sapiens, UniProt Q03164); assay: MLL1 LC-MS Assay; type: biochemical; details: read-out: LCMS
Outline: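 Compound pre-incubated 20 min with MLL1-4C and SAM, then H3[1-21]-biotin (H3K4me0) substrate added; final 30 nM enzyme, 2.5 μM SAM, 10 μM peptide in Tris pH 8.0 with MgCl2, DTT, Tween 20, BSA. After 120 min at rt, TFA-quenched SAH quantified by LC-MS/MS with d4-SAH; IC50 from dose-response fit.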

H3K4me3 in MV4-11 cells = assay: MV4-11 H3K4me3 Cellular ELISA Assay; type: cell-based; details: Homo sapiens, MV4-11, 48 h
Outline: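 MV4-11 cells were treated for 48 h with 12-point 1:3 compound dilutions (from 10 mM stock), then histones were acid-extracted with 0.5M HCl and neutralized. H3K4me3 and total H3 were measured by HRP chemiluminescent ELISA, and inhibition versus DMSO after H3 normalization was curve-fitted for IC50.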

| SMILES | pIC50 [1] | pIC50 (MV4-11 cells) | pIC50 [2] | pIC50 (H3K4me3 in MV4-11 cells) |
| --- | --- | --- | --- | --- |
| Nc1ncnc2c1ncn2Cc1c(N2CC[C@@](N)(CO)C2)ccc2ccccc12 [Example 106] | > 7.22 | > 5.70 | > 7.30 | > 5.72 |
| Nc1ncnc2c1ncn2Cc1c(Br)c(Cl)c2c(c1N1CC[C@](N)(C(=O)NC3CC3)C1)OCC2 [Example 110] | > 7.22 | > 5.70 | > 7.30 | > 5.72 |
| Nc1ncnc2c1ncn2Cc1c(N2CC[C@](N)(C(=O)NC3CC3)C2)ccc2ccoc12 [Example 112] | > 7.22 | > 5.70 | 7.00 to 7.30 | > 5.72 |
| Nc1ncnc2c1ncn2Cc1c(N2CC[C@](N)(C(=O)NC3CC3)C2)ccc(F)c1C(F)(F)F [Example 116, (R)-3-amino-1-(2-((6-amino-9H-purin-9-yl)methyl)-4-fluoro-3-(trifluoromethyl)phenyl)-N-cyclopropylpyrrolidine-3-carboxamide] | > 7.22 | > 5.70 | > 7.30 | > 5.72 |
| CS[C@H]1C[C@H](NC(=O)[C@@]2(N)CCN(c3ccc(F)c(C(F)(F)F)c3Cn3cnc4c(N)ncnc43)C2)C1 [Example 117] | > 7.22 | > 5.70 | > 7.30 | > 5.72 |
| Nc1ncnc2c1ncn2Cc1c(N2CC[C@](N)(C(=O)NCc3cccnn3)C2)ccc(F)c1C(F)(F)F [Example 118] | > 7.22 | > 5.70 | 7.00 to 7.30 | > 5.72 |
| N#CCC1CCN(C(=O)[C@@]2(N)CCN(c3ccc(F)c(C(F)(F)F)c3Cn3cnc4c(N)ncnc43)C2)CC1 [Example 119] | > 7.22 | > 5.70 | 7.00 to 7.30 | > 5.72 |
| Nc1ncnc2c1ncn2Cc1c(N2CC[C@](N)(C(=O)Nc3cc(C4CC4)n[nH]3)C2)ccc(F)c1C(F)(F)F [Example 123] | > 7.22 | > 5.70 | < 7.00 | > 5.72 |
| CC(C)(C#N)CNC(=O)[C@@]1(N)CCN(c2ccc(F)c(C(F)(F)F)c2Cn2cnc3c(N)ncnc32)C1 [Example 125] | > 7.22 | > 5.70 | > 7.30 | > 5.72 |
| Nc1ncnc2c1ncn2Cc1c(N2CC[C@](N)(C(=O)N[C@@H]3C[C@H]3CO)C2)ccc(F)c1C(F)(F)F [Example 127] | > 7.22 | > 5.70 | > 7.30 | > 5.72 |
| Nc1ncnc2c1ncn2Cc1c(N2CC[C@](N)(C(=O)N3CCn4nncc4C3)C2)ccc(F)c1C(F)(F)F [Example 128] | < 7.00 | < 5.52 | < 7.00 | > 5.72 |
| C[C@H]1CN(C(=O)[C@@]2(N)CCN(c3ccc(F)c(C(F)(F)F)c3Cn3cnc4c(N)ncnc43)C2)CCO1 [Example 131] | > 7.22 | > 5.70 | 7.00 to 7.30 | > 5.72 |
| N#CC1CN(C(=O)[C@@]2(N)CCN(c3ccc(F)c(C(F)(F)F)c3Cn3cnc4c(N)ncnc43)C2)C1 [Example 132] | > 7.22 | > 5.70 | 7.00 to 7.30 | > 5.72 |
| Nc1nccc(CNC(=O)[C@@]2(N)CCN(c3ccc(F)c(C(F)(F)F)c3Cn3cnc4c(N)ncnc43)C2)n1 [Example 133] | 7.00 to 7.22 | > 5.70 | 7.00 to 7.30 | > 5.72 |
| Nc1ncnc2c1ncn2Cc1c(N2CC[C@](N)(C(=O)N3CCc4nocc4C3)C2)ccc(F)c1C(F)(F)F [Example 134] | > 7.22 | > 5.70 | < 7.00 | > 5.72 |
